The source of these data is patent US8283465B2, “Triazolopyridine compound, and action thereof as prolyl hydroxylase inhibitor or erythropoietin production-inducing agent” (Japan Tobacco Inc., priority 2009, dated 2012).

Structures can show the parent of a compound that is named as a salt. Where two headings read alike, the source gives them in different places.

Test [1] deals with human EPO production, Hep3B cells. As to the kind of experiment: Human EPO production activity in Hep3B cells (EPO-ELISA of culture supernatant). In kind it is cell-based. Particulars: for production activity (%) at 30 μM in vitro, human EPO: 24 hr, values containing %, relative to maximum production; for EC50: 24 hr incubation, values consisting solely of numbers, read-out: EC50 (μM) in vitro, human EPO production activity. How it is done: The activity of the test compound on human EPO production was measured using Hep3B (AMC) established from human liver-derived cell line.
Hep3B cells were cultured in Eagle-MEM medium containing 10% fetal bovine serum, and the test compound was diluted with dimethyl sulfoxide (DMSO).
Hep3B cells were cultured in a 96-well plate, and a test compound was added at each concentration 24 hr later. After incubation at 37° C. for 24 hr, the culture supernatant was collected. The concentration of human EPO produced in the culture supernatant was measured using a human EPO-ELISA kit (manufactured by StemCell Technologies, 01630) according to the manufacturer's explanation, and the human EPO production activity (%) of the test compound was calculated based on the maximum value of production under the above conditions and the value without addition of the test compound. […] In these Tables, the values consisting solely of numbers show EC50 (μM) and those containing % show human EPO production activity (%) at […].

In the next test the target is T1, human PHD2 (Homo sapiens, UniProt Q9GZT9).
T1 construct: made in house; host or cells: Sf9 insect cells (baculovirus, pVL1393 vector)
Nature of the test: Measurement of human PHD inhibitory activity (TR-FRET, hydroxylation of HIF-1α partial peptide). Format: biochemical. Particulars: human PHD2 enzyme 1 nM, 25° C. 30 min, values consisting solely of numbers. How it is done: Human PHD2 was expressed in insect cell (Sf9 cell). […] The vector and baculovirus were cotransfected into Sf9, and human PHD2 expression baculovirus was isolated in Sf9. By using the virus, human PHD2-expressed cell was prepared. […] The cell lysate was flowed into a column filled with ANTI-FLAG M2 Affinity Gel Freezer Safe (SIGMA), washed, and the N-terminal FLAG-tag-added human PHD2 was eluted and collected.
VBC complex (VHL/Elongin B/Elongin C) was expressed in Escherichia coli (BL21(DE3)). […] After these expression vectors were transfected into Escherichia coli (BL21(DE3)), Escherichia coli was cultured at 37° C. in the medium containing IPTG. The collected Escherichia coli was disrupted by sonication and flowed into a column filled with Ni-NTA superflow (QIAGEN), washed, and the product was eluted and collected. The eluate was flowed into a column filled with Glutathione Sepharose 4B, washed, and the product was eluted and collected. […]
As for human PHD2 enzyme activity, hydroxylation of proline residue contained in the 19 residues of the partial peptide based on the sequence of HIF-1α as a substrate was measured by TR-FRET (Time-Resolved Fluorescence Resonance Energy Transfer) method.
A test compound and a substrate solution were added to a 96-well plate. The reaction was started by addition of a human PHD2 enzyme solution (final concentration 1 nM) to the reaction system. After incubation at 25° C. for 30 min, a stop solution containing EDTA was added, and a VBC complex solution containing europium (Eu) and Xlent was added, and the amount of hydroxylated proline residue was quantified by time-resolved fluorescence spectroscopy. The time-resolved fluorescence in each well was measured, and the human PHD inhibitory activity (%) of the test compound was calculated based on the values of enzyme non-addition well and test compound non-addition well.

Setting [2] is: read-out: IC50 (μM) in vitro, human PHD inhibitory activity.
The mark [3] stands for this setting: IC50 (μM) in vitro, human PHD inhibitory activity.

T1 sequence (Q9GZT9 whole entry): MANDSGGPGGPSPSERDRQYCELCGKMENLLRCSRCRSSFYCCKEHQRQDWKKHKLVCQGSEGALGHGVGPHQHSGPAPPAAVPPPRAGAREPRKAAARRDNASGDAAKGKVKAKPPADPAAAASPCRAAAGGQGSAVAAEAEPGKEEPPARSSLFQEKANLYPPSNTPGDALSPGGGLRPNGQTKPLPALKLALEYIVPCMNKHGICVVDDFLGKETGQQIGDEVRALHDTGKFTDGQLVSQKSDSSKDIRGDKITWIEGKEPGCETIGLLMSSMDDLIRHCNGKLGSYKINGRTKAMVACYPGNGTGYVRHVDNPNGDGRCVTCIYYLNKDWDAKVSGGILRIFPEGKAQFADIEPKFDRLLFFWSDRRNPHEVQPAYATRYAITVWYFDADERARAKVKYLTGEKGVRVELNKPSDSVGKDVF

As for `Cc1nnc2c(C(=O)NCC(=O)O)c(O)c(-c3ccccc3)cn12.Cl` [Example 112, [(7-hydroxy-3-methyl-6-phenyl[1,2,4]triazolo[4,3-a]pyridine-8-carbonyl)amino] acetic acid hydrochloride], the “production activity (%) at 30 μM in vitro, human EPO” value (from here on “production activity (%) at 30 μM”) in test [1] is 0%. Also, the IC50 at human PHD2 (setting [2]) came to 3.09 µM.
As for `O=C(O)CNC(=O)c1c(O)cc(-c2cc(F)c(F)c(F)c2)n2ncnc12` [Example 49, {[7-hydroxy-5-(3,4,5-trifluorophenyl)[1,2,4]triazolo[1,5-a]pyridine-8-carbonyl]amino}acetic acid hydrochloride], the EC50 in test [1] (Homo sapiens) is 11.7 µM. Further, at human PHD2 (setting [2]), the IC50 is 0.24 µM.
`Cl.O=C(O)CNC(=O)c1c(O)cc(CC2CCCCC2)c2ncnn12` [Example 91, [(8-cyclohexylmethyl-6-hydroxy[1,2,4]triazolo[1,5-a]pyridine-5-carbonyl)amino] acetic acid hydrochloride]: the “production activity (%) at 30 μM” value in test [1] amounted to 43%. For the same compound, the half-maximal inhibitory concentration (IC50) at human PHD2 (setting [2]) was determined as 1.53 µM.
Regarding `O=C(O)CNC(=O)c1c(O)cc(CCc2ccccc2)n2ncnc12` [Example 116, [(7-hydroxy-5-phenethyl[1,2,4]triazolo[1,5-a]pyridine-8-carbonyl)amino] acetic acid], the EC50 in test [1] came to 5.6 µM. For the same compound, the IC50 on human PHD2 (setting [3]) stood at 0.18 µM.
As to `O=C(O)CNC(=O)c1c(O)c(-c2ccccc2)cn2cnnc12` [Example 9, [(7-hydroxy-6-phenyl[1,2,4]triazolo[4,3-a]pyridine-8-carbonyl)amino]acetic acid], the “production activity (%) at 30 μM” value in test [1] is on record as 1%. In addition, the IC50 at human PHD2 (setting [2]) is 1.57 µM.
Consider `C[C@@H](NC(=O)c1c(O)cc(-c2cc(F)cc(F)c2)n2ncnc12)C(=O)O` [Example 64, (R)-2-{[5-(3,5-difluorophenyl)-7-hydroxy[1,2,4]triazolo[1,5-a]pyridine-8-carbonyl]amino} propionic acid hydrochloride], for which the “production activity (%) at 30 μM” value in test [1] is on record as 0%. Besides, the half-maximal inhibitory concentration (IC50) on human PHD2 (setting [2]) was found to be 6.88 µM.
Consider `O=C(O)CNC(=O)c1c(O)cc(CCC2CCCCC2)c2ncnn12` [Example 98, {[8-(2-cyclohexylethyl)-6-hydroxy[1,2,4]triazolo[1,5-a]pyridine-5-carbonyl]amino} acetic acid hydrochloride], for which the EC50 in test [1] (Homo sapiens) was 25.6 µM. The IC50 at human PHD2 (setting [2]) amounted to 1.13 µM.
In the case of `O=C(O)CNC(=O)c1c(O)cc(CC2CCCCC2)n2ncnc12` [Example 28, [(5-cyclohexylmethyl-7-hydroxy[1,2,4]triazolo[1,5-a]pyridine-8-carbonyl)amino]acetic acid hydrochloride], in test [1] (Homo sapiens), the concentration giving a half-maximal response (EC50) came to 13.9 µM. Also, the 50% inhibitory concentration (IC50) at human PHD2 (setting [2]) was found to be 1.38 µM.
As to `O=C(O)CNC(=O)c1c(O)cc(-c2ccc(F)c(C(F)(F)F)c2)n2ncnc12` [Example 1, {[5-(4-fluoro-3-trifluoromethylphenyl)-7-hydroxy[1,2,4]triazolo[1,5-a]pyridine-8-carbonyl]amino}acetic acid hydrochloride], in test [1] (Homo sapiens), the EC50 came to 9.9 µM. Also, the half-inhibitory concentration (IC50) on human PHD2 (setting [2]) was 0.42 µM.
Take `CCC(CC)Cc1cc(O)c(C(=O)NCC(=O)O)c2ncnn12` [Example 45, {[5-(2-ethylbutyl)-7-hydroxy[1,2,4]triazolo[1,5-a]pyridine-8-carbonyl]amino}acetic acid hydrochloride]: the EC50 in test [1] (Homo sapiens) amounted to 9.9 µM. For the same compound, on human PHD2 (setting [2]), the IC50 is 0.92 µM.
Turning to `O=C(O)CNC(=O)c1c(O)cc(-c2ccc(C3CC3)cc2F)n2ncnc12` [Example 82, {[5-(4-cyclopropyl-2-fluorophenyl)-7-hydroxy[1,2,4]triazolo[1,5-a]pyridine-8-carbonyl]amino} acetic acid hydrochloride], the 50% effective concentration (EC50) in test [1] (Homo sapiens) worked out at 5.4 µM. In addition, the IC50 on human PHD2 (setting [2]) worked out at 0.15 µM.
Turning to `O=C(O)CNC(=O)c1c(O)cc(CCc2ccccc2C(F)(F)F)c2ncnn12` [Example 100, ({6-hydroxy-8-[2-(2-trifluoromethyl phenyl)ethyl][1,2,4]triazolo[1,5-a]pyridine-5-carbonyl}amino) acetic acid hydrochloride], the EC50 in test [1] (Homo sapiens) was 18 µM. For the same compound, the IC50 on human PHD2 (setting [2]) stood at 0.82 µM.
As for `CC(C)c1cc(O)c(C(=O)NCC(=O)O)c2ncnn12` [Example 35, [(7-hydroxy-5-isopropyl[1,2,4]triazolo[1,5-a]pyridine-8-carbonyl)amino]acetic acid hydrochloride], the “production activity (%) at 30 μM” value in test [1] came to 43%. Besides, the IC50 on human PHD2 (setting [2]) is 0.88 µM.
As to `O=C(O)CNC(=O)c1c(O)cc(-c2ccc(F)cc2)n2ncnc12` [Example 32, {[5-(4-fluorophenyl)-7-hydroxy[1,2,4]triazolo[1,5-a]pyridine-8-carbonyl]ammino}acetic acid hydrochloride], the half-maximal effective concentration (EC50) in test [1] (Homo sapiens) was 15.6 µM. At human PHD2 (setting [2]), the IC50 came to 0.38 µM.
`Cc1cccc(-c2cc(O)c(C(=O)NCC(=O)O)c3ncnn23)c1` [Example 51, [(7-hydroxy-5-(m-tolyl)[1,2,4]triazolo[1,5-a]pyridine-8-carbonyl)amino] acetic acid hydrochloride]: in test [1] (Homo sapiens), the 50% effective concentration (EC50) was 9.1 µM. Besides, at human PHD2 (setting [2]), the IC50 stood at 0.26 µM.
Take `O=C(O)CNC(=O)c1c(O)cc(-c2cc(Cl)cc(Cl)c2)c2ncnn12` [Example 89, {[8-(3,5-dichlorophenyl)-6-hydroxy[1,2,4]triazolo[1,5-a]pyridine-5-carbonyl]amino} acetic acid hydrochloride]: the 50% effective concentration (EC50) in test [1] (Homo sapiens) was 4.2 µM. The 50% inhibitory concentration (IC50) at human PHD2 (setting [2]) came to 0.12 µM.
Take `O=C(O)CNC(=O)c1c(O)cc(-c2cc(Cl)cc(C3CC3)c2)c2ncnn12` [Example 103, {[8-(3-chloro-5-cyclopropylphenyl)-6-hydroxy[1,2,4]triazolo[1,5-a]pyridine-5-carbonyl]amino} acetic acid hydrochloride]: the 50% effective concentration (EC50) in test [1] (Homo sapiens) was 6.9 µM. The half-inhibitory concentration (IC50) on human PHD2 (setting [2]) was 0.18 µM.
As to `CCC(CC)c1cc(O)c(C(=O)NCC(=O)O)c2ncnn12` [Example 40, {[5-(1-ethylpropyl)-7-hydroxy[1,2,4]triazolo[1,5-a]pyridine-8-carbonyl]amino}acetic acid hydrochloride], the concentration for a half-maximal effect (EC50) in test [1] (Homo sapiens) is 17.7 µM. On human PHD2 (setting [2]), the 50% inhibitory concentration (IC50) was found to be 0.87 µM.
As for `O=C(O)CNC(=O)c1c(O)cc(-c2ccc(Cl)c(F)c2)n2ncnc12` [Example 78, {[5-(4-chloro-3-fluorophenyl)-7-hydroxy[1,2,4]triazolo[1,5-a]pyridine-8-carbonyl]amino} acetic acid hydrochloride], the EC50 in test [1] (Homo sapiens) was 6.6 µM. The IC50 at human PHD2 (setting [2]) is 0.15 µM.
For `O=C(O)CNC(=O)c1c(O)cc(CCCc2ccccc2)n2ncnc12` [Example 29, {[7-hydroxy-5-(3-phenylpropyl)[1,2,4]triazolo[1,5-a]pyridine-8-carbonyl]amino}acetic acid], in test [1] (Homo sapiens), the EC50 is 11.3 µM. Further, at human PHD2 (setting [2]), the 50% inhibitory concentration (IC50) was 0.92 µM.
On to `Cc1ccc(-c2cc(O)c(C(=O)NCC(=O)O)c3ncnn23)s1` [Example 72, {[7-hydroxy-5-(5-methylthiophen-2-yl) [1,2,4]triazolo[1,5-a]pyridine-8-carbonyl]amino} acetic acid hydrochloride], for which the 50% effective concentration (EC50) in test [1] (Homo sapiens) was 4 µM. The IC50 at human PHD2 (setting [2]) was found to be 0.4 µM.
For `O=C(O)CNC(=O)c1c(O)ccn2c(-c3ccccc3)nnc12` [Example 113, [(7-hydroxy-3-phenyl[1,2,4]triazolo[4,3-a]pyridine-8-carbonyl)amino] acetic acid], the “production activity (%) at 30 μM” value in test [1] is reported as 0%. Further, the half-maximal inhibitory concentration (IC50) at human PHD2 (setting [2]) came to 0.56 µM.
In the case of `O=C(O)CNC(=O)c1c(O)cc(CCc2ccccc2)n2ncnc12` [Example 2, [(7-hydroxy-5-phenethyl[1,2,4]triazolo[1,5-a]pyridine-8-carbonyl)amino]acetic acid hydrochloride], the 50% effective concentration (EC50) in test [1] (Homo sapiens, Hep3B, 24 h) was determined as 10.9 µM. In addition, the half-inhibitory concentration (IC50) at human PHD2 (setting [3]) came out at 0.22 µM.
Take `O=C(O)CNC(=O)c1c(O)cc(-c2cc(F)cc(F)c2)c2ncnn12` [Example 85, {[8-(3,5-difluorophenyl)-6-hydroxy[1,2,4]triazolo[1,5-a]pyridine-5-carbonyl]amino} acetic acid hydrochloride]: in test [1] (Homo sapiens), the EC50 came to 20.6 µM. For the same compound, the half-maximal inhibitory concentration (IC50) at human PHD2 (setting [2]) was 0.16 µM.
